From publication PMC9611727, “Optimization of a Novel Mandelamide-Derived Pyrrolopyrimidine Series of PERK Inhibitors” (Pharmaceutics, 2022)

Assays:
Assay in all cases: scanMAX kinase panel
Type in all cases: binding
Conditions in all cases: read-out: % Control; for remaining binding at 1 µM: 1000 nM
MERTK = biological target: T1, MERTK (Homo sapiens, UniProt Q12866)
T1 construct: purchased DiscoverX scanMAX
T1 sequence (Q12866 21-999): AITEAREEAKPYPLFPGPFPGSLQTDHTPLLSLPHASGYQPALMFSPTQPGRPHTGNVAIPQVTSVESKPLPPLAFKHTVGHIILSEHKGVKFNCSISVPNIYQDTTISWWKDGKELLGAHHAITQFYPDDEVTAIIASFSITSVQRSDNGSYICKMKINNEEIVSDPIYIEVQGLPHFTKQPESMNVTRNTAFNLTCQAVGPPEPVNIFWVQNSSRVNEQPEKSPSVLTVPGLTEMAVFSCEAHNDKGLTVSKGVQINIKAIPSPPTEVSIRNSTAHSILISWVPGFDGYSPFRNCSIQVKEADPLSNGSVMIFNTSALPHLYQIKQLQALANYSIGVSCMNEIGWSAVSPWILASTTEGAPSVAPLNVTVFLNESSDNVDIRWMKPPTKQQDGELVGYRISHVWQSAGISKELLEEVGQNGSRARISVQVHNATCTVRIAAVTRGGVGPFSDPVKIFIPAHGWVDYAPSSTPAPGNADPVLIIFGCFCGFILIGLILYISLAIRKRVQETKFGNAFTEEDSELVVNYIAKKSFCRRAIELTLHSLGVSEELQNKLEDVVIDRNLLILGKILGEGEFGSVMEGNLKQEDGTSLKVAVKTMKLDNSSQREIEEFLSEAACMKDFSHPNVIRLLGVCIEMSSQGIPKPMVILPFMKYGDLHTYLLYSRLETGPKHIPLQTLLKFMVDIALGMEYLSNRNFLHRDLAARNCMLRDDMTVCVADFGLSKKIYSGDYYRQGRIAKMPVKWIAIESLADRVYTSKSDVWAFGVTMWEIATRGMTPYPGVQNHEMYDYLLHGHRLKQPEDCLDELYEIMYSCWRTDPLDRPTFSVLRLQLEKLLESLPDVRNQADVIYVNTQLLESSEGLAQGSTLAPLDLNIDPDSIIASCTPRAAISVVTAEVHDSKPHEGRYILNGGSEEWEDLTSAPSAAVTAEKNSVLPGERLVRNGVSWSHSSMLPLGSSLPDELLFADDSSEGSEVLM
Source text: (§1) Supplemental Table S2. scanMAXSM Kinome Assay Results. Complete tabulated data of all 468 kinases from the panel, including
(§2) 403 wild-type and 65 mutant isoforms. […] Cmpd 11 and Cmpd 24

CSF1R = biological target: T2, CSF1R (Homo sapiens, UniProt P07333)
T2 construct: purchased DiscoverX scanMAX
Source text: as §1, §2

NEK5 = biological target: T3, NEK5 (Homo sapiens, UniProt Q6P3R8)
T3 construct: purchased DiscoverX scanMAX
T3 sequence (Q6P3R8 1-708): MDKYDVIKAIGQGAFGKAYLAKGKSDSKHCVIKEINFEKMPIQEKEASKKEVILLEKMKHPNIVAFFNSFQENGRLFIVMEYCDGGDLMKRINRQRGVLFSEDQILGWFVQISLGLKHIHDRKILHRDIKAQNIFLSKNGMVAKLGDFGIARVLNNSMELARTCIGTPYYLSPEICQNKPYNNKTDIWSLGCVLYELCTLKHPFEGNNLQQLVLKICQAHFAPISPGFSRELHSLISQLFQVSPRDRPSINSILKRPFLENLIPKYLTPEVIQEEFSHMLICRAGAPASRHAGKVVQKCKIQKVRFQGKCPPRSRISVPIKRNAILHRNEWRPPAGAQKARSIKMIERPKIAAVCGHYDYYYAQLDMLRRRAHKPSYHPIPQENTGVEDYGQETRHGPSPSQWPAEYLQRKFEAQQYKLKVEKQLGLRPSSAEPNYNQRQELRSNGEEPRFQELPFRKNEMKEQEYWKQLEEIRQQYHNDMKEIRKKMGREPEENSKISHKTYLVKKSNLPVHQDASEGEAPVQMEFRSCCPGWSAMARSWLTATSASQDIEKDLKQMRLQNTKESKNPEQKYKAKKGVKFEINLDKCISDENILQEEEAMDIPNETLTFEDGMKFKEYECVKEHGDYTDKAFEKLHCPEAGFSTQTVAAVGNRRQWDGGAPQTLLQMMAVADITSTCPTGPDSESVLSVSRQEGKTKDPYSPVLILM
Source text: as §1, §2

GCN2(Kin.Dom.2,S808G) = biological target: T4, GCN2(Kin.Dom.2,S808G) (Homo sapiens, UniProt Q9P2K8, S808G)
T4 construct: GCN2(Kin.Dom.2,S808G); purchased DiscoverX scanMAX
T4 sequence (Q9P2K8 590-1001 S808G limits assumed): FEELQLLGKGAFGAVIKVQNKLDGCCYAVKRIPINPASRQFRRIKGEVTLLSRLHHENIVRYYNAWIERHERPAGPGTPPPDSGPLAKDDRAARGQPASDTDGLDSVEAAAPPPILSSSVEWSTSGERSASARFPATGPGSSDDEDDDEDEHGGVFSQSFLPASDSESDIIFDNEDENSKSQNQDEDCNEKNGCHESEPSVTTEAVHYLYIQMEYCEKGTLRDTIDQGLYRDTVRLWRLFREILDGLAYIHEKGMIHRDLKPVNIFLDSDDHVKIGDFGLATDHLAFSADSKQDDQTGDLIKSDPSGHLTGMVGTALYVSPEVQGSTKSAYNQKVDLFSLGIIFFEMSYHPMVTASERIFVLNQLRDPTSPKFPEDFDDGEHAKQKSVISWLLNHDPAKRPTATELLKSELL
Source text: as §1, §2

T2 sequence (P07333 20-972): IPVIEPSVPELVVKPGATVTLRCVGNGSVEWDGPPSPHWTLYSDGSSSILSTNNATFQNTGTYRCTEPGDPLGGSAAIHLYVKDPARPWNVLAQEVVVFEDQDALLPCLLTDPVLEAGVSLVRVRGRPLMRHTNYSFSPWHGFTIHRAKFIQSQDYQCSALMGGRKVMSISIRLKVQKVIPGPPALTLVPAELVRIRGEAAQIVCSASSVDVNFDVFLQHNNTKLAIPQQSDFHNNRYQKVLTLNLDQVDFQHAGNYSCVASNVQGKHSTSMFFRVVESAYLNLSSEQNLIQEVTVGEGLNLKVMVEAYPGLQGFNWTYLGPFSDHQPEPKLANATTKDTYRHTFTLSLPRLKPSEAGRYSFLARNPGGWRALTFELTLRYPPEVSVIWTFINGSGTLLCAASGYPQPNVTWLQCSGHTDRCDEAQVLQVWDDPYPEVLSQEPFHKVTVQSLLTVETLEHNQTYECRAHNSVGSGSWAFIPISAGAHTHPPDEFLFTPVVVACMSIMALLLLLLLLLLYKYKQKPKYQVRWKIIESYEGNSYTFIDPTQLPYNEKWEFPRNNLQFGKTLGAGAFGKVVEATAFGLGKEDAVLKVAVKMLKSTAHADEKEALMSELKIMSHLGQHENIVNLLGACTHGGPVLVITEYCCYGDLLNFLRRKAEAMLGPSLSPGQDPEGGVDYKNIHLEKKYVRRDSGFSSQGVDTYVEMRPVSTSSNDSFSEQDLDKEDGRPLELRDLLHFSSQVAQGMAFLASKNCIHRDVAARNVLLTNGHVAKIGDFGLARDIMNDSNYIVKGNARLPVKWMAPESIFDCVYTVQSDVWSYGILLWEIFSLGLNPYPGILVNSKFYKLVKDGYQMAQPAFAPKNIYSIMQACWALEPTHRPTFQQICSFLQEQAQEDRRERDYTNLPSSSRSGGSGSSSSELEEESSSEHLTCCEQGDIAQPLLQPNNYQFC

Structure (SMILES)	remaining binding at 1 µM (MERTK) [%]	remaining binding at 1 µM (CSF1R) [%]	remaining binding at 1 µM (NEK5) [%]	remaining binding at 1 µM (GCN2(Kin.Dom.2,S808G)) [%]	remaining binding at 0.1 µM (MERTK; 100 nM) [%]	remaining binding at 0.1 µM (CSF1R; 100 nM) [%]	remaining binding at 0.1 µM (NEK5; 100 nM) [%]	remaining binding at 0.1 µM (GCN2(Kin.Dom.2,S808G); 100 nM) [%]
Cc1cc(NC(=O)[C@H](O)c2cccc(F)c2)ccc1-c1cn(C)c2ncnc(N)c12 [Compound 11, (R)-N-(4-(4-amino-7-methyl-7H-pyrrolo[2,3-d]pyrimidin-5-yl)-3-methylphenyl)-2-(3-fluorophenyl)-2-hydroxy acetamide]	65	45	34	84				
Cc1nc(N)c2c(-c3ccc(NC(=O)[C@H](O)c4cccc(C(F)(F)F)c4)cc3C)cn(C)c2n1 [Compound 26]	29	15	96	94	94	99	100	76
Cc1nc(N)c2c(-c3ccc(NC(=O)[C@H](O)c4cccc(F)c4)cc3C)cn(C)c2n1 [Compound 24]	100	94	100	100				
